Laboratory results as given in the supplement of paper PMC12137928.
Where a name gives a salt, the structure may show the parent alone.

Test system: HCT116
Conditions: 72 h
In short: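 In 1536-well plates, 250 HCT116 cells per well were seeded and left for 5 h to attach. Luminescence from CellTiter-Glo was set against vehicle (0%) and positive control (-100%), and pattern correction was applied. IC50 and maximal efficacy come from four-parameter Hill fitting.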

IC50 cell viability (ICRF193 0 nM) [µM]	IC50 cell viability (ICRF193 200 nM) [µM]	SMILES
> 45.8	> 45.8	C[Se]CC[C@H](N)C(=O)O [Selenomethionine]
> 45.8	> 45.8	C=C1/C(=C\C=C2/CCC[C@]3(C)[C@@H]([C@H](C)/C=C/C=C/C(O)(CC)CC)CC[C@@H]23)C[C@@H](O)C[C@@H]1O [Seocalcitol]
> 45.8	> 45.8	CC1=C(C)C(=O)C(C(CCCCCC(=O)O)c2ccccc2)=C(C)C1=O (centres undefined) [Seratrodast]
> 45.8	> 45.8	FCOC(C(F)(F)F)C(F)(F)F [Sevoflurane]
> 45.8	> 45.8	Cc1cc(O)c2c(c1)O[C@@]1(C)CC[C@H]3C(C)(C)CCC[C@]34CO[C@@H]2[C@H]41 [Siccanin]
> 45.8	> 45.8	CCCc1nn(C)c2c(=O)[nH]c(-c3cc(S(=O)(=O)N4CCN(C)CC4)ccc3OCC)nc12 [Sildenafil citrate]
> 45.8	> 45.8	C[C@H](Cc1cc2c(c(C(N)=O)c1)N(CCCO)CC2)NCCOc1ccccc1OCC(F)(F)F [Silodosin]
> 45.8	> 45.8	COc1ccc2c(O[C@@H]3C[C@H]4C(=O)N[C@]5(C(=O)NS(=O)(=O)C6CC6)C[C@H]5/C=C\CCCCN(C)C(=O)[C@@H]4C3)cc(-c3nc(C(C)C)cs3)nc2c1C [Simeprevir]
> 45.8	> 45.8	CCCc1ccc(OCC(=O)N2CCN(C(=O)COc3ccc(CCC)cc3OC)CC2)c(OC)c1 [Simetride]
> 45.8	> 45.8	CSCC[C@H](NC(=O)[C@H](Cc1ccc(OS(=O)(=O)O)cc1)NC(=O)[C@@H](N)CC(=O)O)C(=O)NCC(=O)N[C@@H](Cc1c[nH]c2ccccc12)C(=O)N[C@@H](CCSC)C(=O)N[C@@H](CC(=O)O)C(=O)N[C@@H](Cc1ccccc1)C(N)=O [Sincalide]
> 45.8	> 45.8	N[C@@H]1CN(c2c(F)cc3c(=O)c(C(=O)O)cn([C@@H]4C[C@@H]4F)c3c2Cl)CC12CC2 [Sitafloxacin hydrate]
> 45.8	> 45.8	N[C@@H](CC(=O)N1CCn2c(nnc2C(F)(F)F)C1)Cc1cc(F)c(F)cc1F [Sitagliptin]
> 45.8	> 45.8	Cc1cc2c(cc1CC(=O)c1sccc1S(=O)(=O)Nc1onc(C)c1Cl)OCO2 [Sitaxentan]
> 45.8	> 45.8	CC(C)(C)C(=O)Oc1ccc(S(=O)(=O)Nc2ccccc2C(=O)NCC(=O)O)cc1 [Sivelestat sodium hydrate]
> 45.8	> 45.8	CC(C)COC(=O)OCN1C(=O)CN(CCN2CC(=O)N(COC(=O)OCC(C)C)C(=O)C2)CC1=O [Sobuzoxane]
> 45.8	> 45.8	O=S(=O)(O)CC(S)CS (centres undefined) [Sodium 2,3-dimercaptopropanesulfonate monohydrate]
> 45.8	> 45.8	O=S(=O)(O)CCS [Sodium 2-mercaptoethanesulfonate]
> 45.8	> 45.8	Cc1ccc(C(=O)C(=O)O)cc1C [Sodium 3, 4-dimethylphenyl-glyoxylate]
> 45.8	> 45.8	O=C(O)CCCc1ccccc1 [Sodium 4-phenylbutyrate]
> 45.8	> 45.8	O=C([O-])CC([S-])C(=O)[O-].[Au+].[Na+].[Na+] (centres undefined) [Sodium aurothiomalate(I)]
> 45.8	> 45.8	O=C(O)c1cc(=O)c2c(OCC(O)COc3cccc4oc(C(=O)O)cc(=O)c34)cccc2o1 [Sodium cromoglycate]
> 45.8	> 45.8	CCCCCCCCCC(=O)NO [Sodium decanehydroxamate]
> 45.8	> 45.8	C[C@H](CCC(=O)O)[C@H]1CC[C@H]2[C@@H]3CC[C@@H]4C[C@H](O)CC[C@]4(C)[C@H]3C[C@H](O)[C@]12C [Sodium deoxycholate monohydrate]
> 45.8	> 45.8	CCCCCCCCCCCCOS(=O)(=O)[O-].[Na+] [Sodium dodecyl sulfate]

IC50 cell viability (ICRF193 0 nM) [µM]	IC50 cell viability (ICRF193 200 nM) [µM]	SMILES
> 45.8	> 45.8	CCCC(=O)Nc1c(I)cc(I)c(CC(CC)C(=O)O)c1I (centres undefined) [Sodium tyropanoate]
> 45.8	> 45.8	O=c1[nH]c(=O)c2[nH]c(O)nc2[nH]1 [Sodium urate]
> 45.8	> 45.8	CC1O[C@H](O[C@]2(O[C@H]3CC[C@@]4(C)C(=CC[C@H]5[C@@H]6C[C@H]7[C@H]([C@H](C)[C@H]8CC[C@H](C)CN87)[C@@]6(C)CC[C@@H]54)C3)C[C@@H](O[C@@H]3OC(CO)[C@@H](O)[C@@H](O)C3O)[C@@H](O)C(CO)O2)C(O)[C@@H](O)[C@H]1O (stereo partly drawn) [Solanine alpha]
> 45.8	> 45.8	O=C(O[C@H]1CN2CCC1CC2)N1CCc2ccccc2[C@@H]1c1ccccc1 [Solifenacin (hydrochloride)]
> 45.8	> 45.8	C/C=C/C=C/C(=O)O [Sorbic acid]
> 45.8	> 45.8	CCCCCCCCCCCCCCCC(=O)OC[C@@H](O)[C@H]1OC[C@H](O)[C@H]1O [Sorbitan monohexadecanoate]
> 45.8	> 45.8	CC(C)NCC(O)c1ccc(NS(C)(=O)=O)cc1 (centres undefined) [Sotalol]
> 45.8	> 45.8	C[C@@H]1CN(c2c(F)c(N)c3c(=O)c(C(=O)O)cn(C4CC4)c3c2F)C[C@H](C)N1 [Sparfloxacin]
> 45.8	> 45.8	C1CCN2C[C@@H]3C[C@@H](CN4CCCC[C@@H]34)[C@H]2C1 [Sparteine]
> 45.8	> 45.8	CN[C@@H]1[C@H](O)[C@H](NC)[C@H]2O[C@@]3(O)C(=O)C[C@@H](C)O[C@H]3O[C@@H]2[C@H]1O [Spectinomycin dihydrochloride]
> 45.8	> 45.8	CO[C@@H]1[C@@H](O[C@@H]2O[C@H](C)[C@@H](O[C@H]3C[C@@](C)(O)[C@@H](O)[C@H](C)O3)[C@H](N(C)C)[C@H]2O)[C@@H](CC=O)C[C@@H](C)[C@@H](O[C@H]2CC[C@H](N(C)C)[C@@H](C)O2)/C=C/C=C/C[C@@H](C)OC(=O)C[C@H]1OC(C)=O [Spiramycin II]
> 45.8	> 45.8	CC(C)CCCC(C)CCCC(C)CCCCC(C)CCCC(C)CCCC(C)C (centres undefined) [Squalane]
> 45.8	> 45.8	CC(C)=CCC/C(C)=C/CC/C(C)=C/CC/C=C(\C)CC/C=C(\C)CCC=C(C)C [Squalene]
> 45.8	> 45.8	Cc1cn([C@H]2C=C[C@@H](CO)O2)c(=O)[nH]c1=O [Stavudine]
> 45.8	> 45.8	CC(C)(C)C(O)/C=C/c1ccc2c(c1)OCO2 (centres undefined) [Stiripentol]
> 45.8	> 45.8	CN[C@@H]1[C@H](O[C@H]2[C@H](O[C@H]3[C@H](O)[C@@H](O)[C@H](N=C(N)N)[C@@H](O)[C@@H]3N=C(N)N)O[C@@H](C)[C@]2(O)C=O)O[C@@H](CO)[C@H](O)[C@H]1O [Streptomycin sulfate]
> 45.8	> 45.8	CN(N=O)C(=O)N[C@@H](C=O)[C@@H](O)[C@H](O)[C@H](O)CO [Streptozotocin]
> 45.8	> 45.8	N#Cc1c(N(CC(=O)O)CC(=O)O)sc(C(=O)O)c1CC(=O)O [Strontium Ranelate]
> 45.8	> 45.8	C=Cc1ccccc1 [Styrene]
> 45.8	> 45.8	C[N+](C)(C)CCOC(=O)CCC(=O)OCC[N+](C)(C)C [Succinylcholine chloride]
> 45.8	> 45.8	O=C(O)CCC(=O)Nc1ccc(S(=O)(=O)Nc2nccs2)cc1 [Succinylsulfathiazole]
> 45.8	> 45.8	CC(=O)OC[C@H]1O[C@@](COC(C)=O)(O[C@H]2O[C@H](COC(C)=O)[C@@H](OC(C)=O)[C@H](OC(C)=O)[C@H]2OC(C)=O)[C@@H](OC(C)=O)[C@@H]1OC(C)=O [Sucrose octaacetate]
> 45.8	> 45.8	O=S(=O)(O)OC[C@H]1O[C@@](COS(=O)(=O)O)(O[C@H]2O[C@H](COS(=O)(=O)O)[C@@H](OS(=O)(=O)O)[C@H](OS(=O)(=O)O)[C@H]2OS(=O)(=O)O)[C@@H](OS(=O)(=O)O)[C@@H]1OS(=O)(=O)O [Sucrose octasulfate, sodium salt]
> 45.8	> 45.8	OC[C@H]1O[C@@](CO)(O[C@H]2O[C@H](CO)[C@@H](O)[C@H](O)[C@H]2O)[C@@H](O)[C@@H]1O [Sucrose]

SMILES	IC50 cell viability (ICRF193 0 nM) [µM]	IC50 cell viability (ICRF193 200 nM) [µM]
C=CCN.ClCC1CO1 (centres undefined) [Sevelamer Hydrochloride (Technical Grade)]	> 45.8	> 45.8
Oc1ccccc1-c1ccccc1 [Sodium 2-phenylphenate tetrahydrate]	> 45.8	> 45.8
O=C(CCCN1CCC2(CC1)C(=O)NCN2c1ccccc1)c1ccc(F)cc1 [Spiperone]	> 45.8	> 45.8
O=C1C[C@@H]2OCC=C3CN4CC[C@]56c7ccccc7N1[C@H]5[C@H]2[C@H]3C[C@H]46 [Strychnine]	> 45.8	> 45.8
